Reference: ChEMBL document CHEMBL4190388, “Discovery and Optimization of Indolyl-Containing 4-Hydroxy-2-Pyridone Type II DNA Topoisomerase Inhibitors Active against Multidrug Resistant Gram-negative Bacteria” (J Med Chem, 2018)
Values after ≈ are worked out from the molar mass of the structure shown.

What was measured:
Assay type in all cases: functional
Escherichia coli [1] = assay: Antibacterial activity against quinolone resistance Escherichia coli isolate ELZ4251 harboring gyrA/parC mutant by CLSI M100-S17 protocol based method
Klebsiella pneumoniae = assay: Antibacterial activity against wild type Klebsiella pneumoniae ATCC 35657 by CLSI M100-S17 protocol based method
Escherichia coli [2] = assay: Antibacterial activity against wild type Escherichia coli ATCC 25922 by CLSI M100-S17 protocol based method
Acinetobacter baumannii [3] = assay: Antibacterial activity against fluoroquinolone resistant Acinetobacter baumannii isolate MMX2240 by CLSI M100-S17 protocol based method
Acinetobacter baumannii [4] = assay: Antibacterial activity against wild type Acinetobacter baumannii ATCC BAA-747 by CLSI M100-S17 protocol based method
Escherichia coli [5] = assay: Antibacterial activity against fluoroquinolone resistant Escherichia coli SKM18 by CLSI M100-S17 protocol based method
Escherichia coli [6] = assay: Antibacterial activity against wild type Escherichia coli ATCC 25922 in presence of HSA by CLSI M100-S17 protocol based method

Row | SMILES | MIC (Escherichia coli [1]) [µg/mL] | MIC (Klebsiella pneumoniae) [µg/mL] | MIC (Escherichia coli [2]) [µg/mL] | MIC (Acinetobacter baumannii [3]) [µg/mL] | MIC (Acinetobacter baumannii [4]) [µg/mL] | MIC (Escherichia coli [5]) [µg/mL] | MIC (Escherichia coli [6]) [µg/mL]
1 | CCc1c(-c2ccc3c(c2)cc(CN2CCCC2)n3C)[nH]c(=O)c(C(=O)O)c1O | 6.3 (≈ 15.9 µM) | 0.78 (≈ 1.97 µM) | 0.78 (≈ 1.97 µM) | 12.5 (≈ 31.6 µM) | 0.78 (≈ 1.97 µM) | 6.3 (≈ 15.9 µM) | –
2 | Cn1c(CN2CCCC2)cc2cc3c(cc21)SCCc1c-3[nH]c(=O)c(C(=O)O)c1O | – | 2 (≈ 4.7 µM) | 2 (≈ 4.7 µM) | 3.9 (≈ 9.17 µM) | 2 (≈ 4.7 µM) | 2 (≈ 4.7 µM) | 31.3
3 | CC(C)c1c(-c2ccc3c(c2)cc(CN(C)C)n3C)[nH]c(=O)c(C(=O)O)c1O | – | 3.9 (≈ 10.2 µM) | 3.1 (≈ 8.08 µM) | 62.5 (≈ 163 µM) | 15.6 (≈ 40.7 µM) | > 62.5 | 31.3
4 | CN(C)Cc1cc2cc3c(cc2n1C)SCCc1c-3[nH]c(=O)c(C(=O)O)c1O | – | 2 (≈ 5.01 µM) | 2 (≈ 5.01 µM) | 3.9 (≈ 9.76 µM) | 2 (≈ 5.01 µM) | 2 (≈ 5.01 µM) | 31.2
5 | COC1CCN(Cc2cc3cc4c(cc3n2C)CCCc2c-4[nH]c(=O)c(C(=O)O)c2O)C1 (stereo not drawn) | – | 3.1 (≈ 7.09 µM) | 1.6 (≈ 3.66 µM) | 3.1 (≈ 7.09 µM) | 3.1 (≈ 7.09 µM) | 2 (≈ 4.57 µM) | 3.1
6 | Cc1c(-c2ccc3c(c2)cc(CN(C)C)n3C)[nH]c(=O)c(C(=O)O)c1O | 3.1 (≈ 8.72 µM) | 6.3 (≈ 17.7 µM) | 6.3 (≈ 17.7 µM) | 1.6 (≈ 4.5 µM) | 6.3 (≈ 17.7 µM) | 1.6 (≈ 4.5 µM) | 12.5
7 | Cn1c(CN2CCCC2)cc2cc3c(cc21)COCc1c-3[nH]c(=O)c(C(=O)O)c1O | – | 3.1 (≈ 7.57 µM) | 3.1 (≈ 7.57 µM) | 12.5 (≈ 30.5 µM) | 12.5 (≈ 30.5 µM) | 0.39 (≈ 0.953 µM) | –
8 | CC(C)NCc1cc2cc3c(cc2n1C)COCc1c-3[nH]c(=O)c(C(=O)O)c1O | – | 3.1 (≈ 7.8 µM) | 12.5 (≈ 31.5 µM) | > 50 | > 50 | 0.78 (≈ 1.96 µM) | –
9 | CN(C)CCNCc1cc2cc3c(cc2n1C)CCCc1c-3[nH]c(=O)c(C(=O)O)c1O | – | 2 (≈ 4.71 µM) | 3.9 (≈ 9.19 µM) | 62.5 (≈ 147 µM) | 15.6 (≈ 36.7 µM) | 0.5 (≈ 1.18 µM) | 15.6
10 | CN(C)Cc1cc2cc3c(cc2n1C)COCc1c-3[nH]c(=O)c(C(=O)O)c1O | – | 3.1 (≈ 8.09 µM) | 6.3 (≈ 16.4 µM) | 25 (≈ 65.2 µM) | 25 (≈ 65.2 µM) | 0.78 (≈ 2.03 µM) | –
11 | CN(C)Cc1cc2cc(-c3[nH]c(=O)c(C(=O)O)c(O)c3C3CC3)ccc2n1C | – | 31.3 (≈ 82.1 µM) | 62.5 (≈ 164 µM) | 15.6 (≈ 40.9 µM) | > 62.5 | 31.3 (≈ 82.1 µM) | > 62.5
12 | CCNCc1cc2cc3c(cc2n1C)NCCc1c-3[nH]c(=O)c(C(=O)O)c1O | > 62.5 | 6.3 (≈ 16.5 µM) | 15.6 (≈ 40.8 µM) | > 25 | > 25 | 3.9 (≈ 10.2 µM) | –
13 | CNCc1cc2cc3c(cc2n1C)OCCc1c-3[nH]c(=O)c(C(=O)O)c1O | > 12.5 | 1.6 (≈ 4.33 µM) | 1.6 (≈ 4.33 µM) | > 12.5 | 12.5 (≈ 33.8 µM) | 0.78 (≈ 2.11 µM) | 3.1
14 | CCc1c(-c2ccc3c(c2)cc(CNC)n3C)[nH]c(=O)c(C(=O)O)c1O | 3.1 (≈ 8.72 µM) | 0.78 (≈ 2.19 µM) | 0.39 (≈ 1.1 µM) | 6.3 (≈ 17.7 µM) | 0.78 (≈ 2.19 µM) | 1.6 (≈ 4.5 µM) | 0.78
15 | CNCc1cc2cc3c(cc2n1C)NCCc1c-3[nH]c(=O)c(C(=O)O)c1O | > 62.5 | 6.3 (≈ 17.1 µM) | 31.3 (≈ 85 µM) | > 25 | > 25 | 3.9 (≈ 10.6 µM) | –
16 | COCCNCc1cc2cc3c(cc2n1C)OCCc1c-3[nH]c(=O)c(C(=O)O)c1O | – | 2 (≈ 4.84 µM) | 2 (≈ 4.84 µM) | 7.8 (≈ 18.9 µM) | 7.8 (≈ 18.9 µM) | 0.5 (≈ 1.21 µM) | 15.6
17 | CCNCc1cc2cc3c(cc2n1C)OCCc1c-3[nH]c(=O)c(C(=O)O)c1O | 12.5 (≈ 32.6 µM) | 0.78 (≈ 2.03 µM) | 0.78 (≈ 2.03 µM) | 12.5 (≈ 32.6 µM) | 12.5 (≈ 32.6 µM) | 0.78 (≈ 2.03 µM) | 1.6
18 | CC(C)NCc1cc2cc3c(cc2n1C)NCCc1c-3[nH]c(=O)c(C(=O)O)c1O | 62.5 (≈ 158 µM) | 6.3 (≈ 15.9 µM) | 7.8 (≈ 19.7 µM) | > 25 | > 25 | 3.9 (≈ 9.84 µM) | –
19 | CCc1c(-c2ccc3c(c2)c(C)c(C)n3C)[nH]c(=O)c(C(=O)O)c1O | – | – | > 12.5 | – | – | – | –
20 | COCCNCc1cc2cc3c(cc2n1C)CCCc1c-3[nH]c(=O)c(C(=O)O)c1O | 1.6 (≈ 3.89 µM) | 0.78 (≈ 1.9 µM) | 0.78 (≈ 1.9 µM) | 1 (≈ 2.43 µM) | 1.6 (≈ 3.89 µM) | 0.5 (≈ 1.22 µM) | 3.1
21 | CCc1c(-c2ccc3c(c2)cc(CNC(C)(C)C)n3C)[nH]c(=O)c(C(=O)O)c1O | 6.3 (≈ 15.9 µM) | 0.78 (≈ 1.96 µM) | 0.78 (≈ 1.96 µM) | 6.3 (≈ 15.9 µM) | 0.78 (≈ 1.96 µM) | 6.3 (≈ 15.9 µM) | 1.6
22 | COC1CCN(Cc2cc3cc4c(cc3n2C)OCCc2c-4[nH]c(=O)c(C(=O)O)c2O)C1 (stereo not drawn) | – | 15.6 (≈ 35.5 µM) | 3.9 (≈ 8.87 µM) | 7.8 (≈ 17.7 µM) | 3.9 (≈ 8.87 µM) | 2 (≈ 4.55 µM) | 7.8
23 | CN(C)CCNCc1cc2cc3c(cc2n1C)OCCc1c-3[nH]c(=O)c(C(=O)O)c1O | – | 31.3 (≈ 73.4 µM) | > 62.5 | > 62.5 | > 62.5 | 7.8 (≈ 18.3 µM) | 62.5
24 | CN(C)Cc1cc2cc(-c3cc(O)c(C(=O)O)c(=O)[nH]3)ccc2n1C | – | – | > 12.5 | – | – | > 12.5 | –
